Results: patent publication US9439878B2, “Use of lumefantrine and related compounds in the treatment of cancer” (priority 2010, dated 2016)

What was measured:
[1] = system: Ba/F3 cells expressing wild-type BCR-ABL (p210); experiment: MTT cell viability assay, Ba/F3 cells expressing wild-type (p210) Bcr-Abl; format: cell-based, Murine; details: for potency relative to chloroquine (cell viability): chloroquine 25 μM control
From the text: (§1) A study conducted through the independent Cancer Therapy & Research Center, Institute for Drug Development at the University of Texas Health Science Center at San Antonio, Tex., evaluated lumefantrine as an autophagy inhibitor (i.e., “Lumefantrine Study”). […] 1; 110(1):313-22. Epub 2007 Mar. 15. PMID: 17363733”. Murine Ba/F3 cells that stably express wild-type BCR-ABL (p210) or the T315I mutated version of BCR-ABL, which confers resistance to imatinib and nilotinib were utilized for this study. Cells were propagated at 37° C. in a humidified atmosphere containing 5% carbon dioxide. Cell viability was determined using the MTT assay. This colorimetric procedure measures conversion of the MTT reagent (a tetrazoleum salt) to formazan by mitochondria. Formazan production was quantified by spectrophotometric measurement at 570 nm and was proportional to viable cell number. Cells were cultured and treated with different concentrations of the agent(s) for 48 hours. Following treatment, 50 μl of MTT was added to each well and allowed to incubate for 1-3 hours at 37° C. Each well was aspirated and 200 μl of DMSO was added to each well to dissolve the formazan. […] Lumefantrine was tested as potential autophagy inhibitor at final concentrations between one to forty micromolar. […] The ER stressor drugs tested and their final concentrations were GleevecTM (imatinib, Novartis, final 350 nM), […] (nilotinib, Novartis, final 35 nM) or ZolinzaTM (suberoylanilide hydroxamic acid, Merck, final 1 μM).

[2] = system: Ba/F3 cells expressing T315I mutated BCR-ABL; experiment: MTT cell viability assay, Ba/F3 cells expressing mutant Bcr-Abl (T315I); format: cell-based, Murine; details: for potency relative to chloroquine (cell viability): chloroquine 25 μM control
From the text: as §1

CCCCN(CCCC)CC(O)c1cc(Cl)cc2c1-c1ccc(Cl)cc1/C2=C\c1ccc(Cl)cc1 (racemic) [lumefantrine, 2-(dibutylamino)-1-[(9E)-2,7-dichloro-9-(4-chlorobenzylidene)-9H-fluoren-4-yl]ethanol]
potency relative to chloroquine (cell viability) ([1]; SAHA experiment, Ba/F3 p210): equipotent with chloroquine
potency relative to chloroquine (cell viability) ([1]; imatinib experiment, Ba/F3 p210): equipotent with chloroquine
cell viability (MTT, OD 570 nm) ([1]; lumefantrine 1-40 micromolar, with and without SAHA 1 μM, 48 hours, Ba/F3 p210 (FIG. 2)): dose-dependent reductions in the cell viability
potency relative to chloroquine (cell viability) ([1]; nilotinib experiment, Ba/F3 p210): equipotent with chloroquine
enhancement of suberoylanilide hydroxamic acid (SAHA) effect on proliferation/viability ([1]; with SAHA 1 μM, 48 hours, Ba/F3 p210): enhanced the suberoylanilide hydroxamic acid drug response
augmentation of imatinib effects on cell viability ([1]; with imatinib 350 nM, 48 hours, Ba/F3 p210 (FIG. 4)): augments the imatinib effects
augmentation of nolotinb effects on cell viability ([1]; with nilotinib 35 nM, 48 hours, Ba/F3 p210 (FIG. 6)): augments the nolotinb effects
potency relative to chloroquine (cell viability) ([2]; SAHA experiment, Ba/F3 T315I): equipotent with chloroquine
potency relative to chloroquine (cell viability) ([2]; imatinib experiment, Ba/F3 T315I): equipotent with chloroquine
cell viability (MTT, OD 570 nm) ([2]; lumefantrine 1-40 micromolar, with and without SAHA 1 μM, 48 hours, Ba/F3 T315I (FIG. 3)): dose-dependent reductions in the cell viability
potency relative to chloroquine (cell viability) ([2]; nilotinib experiment, Ba/F3 T315I): equipotent with chloroquine
enhancement of suberoylanilide hydroxamic acid (SAHA) effect on proliferation/viability ([2]; with SAHA 1 μM, 48 hours, Ba/F3 T315I): enhanced the suberoylanilide hydroxamic acid drug response
augmentation of imatinib effects on cell viability ([2]; with imatinib 350 nM, 48 hours, Ba/F3 T315I (FIG. 5)): the only effects on viability are those generated by lumefantrine alone
augmentation of nolotinb effects on cell viability ([2]; with nilotinib 35 nM, 48 hours, Ba/F3 T315I (FIG. 7)): the only effects on viability are those generated by lumefantrine alone
